{"source": "patent US8541442B2", "about": "“Indole derivatives as anticancer agents” (Janssen Pharmaceutica N.V., priority 2009, dated 2013)", "data": [{"system": "Male NMRI mice", "test": "Ro-4-1284 antagonism in mice", "type": "in vivo", "conditions": "40 mg/kg", "experimental": "(§1) The test is a modification of a procedure described by Colpaert et al. (1975).^3 Male NMRI mice (22±3 g) were housed in macrolon observation cages (L×W×H: 11×12×17 cm; n=3 per cage). At the start of the experiments immediately before test compound administration, the initial body temperature of the mice was measured with a precision of 0.1° C. by inserting the thermo-sensitive probe (1.0 mm diameter) of an electric thermometer (Comark) to a constant depth of 3 cm into the esophagus until a stable reading was obtained. The right eye pupil diameter was measured with a graduated microscope and expressed in 1/24 mm units. Fifteen min after test compound administration, the mice were challenged with Ro-4-1284 (10 mg/kg, s.c.). Ro-4-1284 is a reserpine-like vesicular monoamine transport (VMAT-2) inhibitor, which rapidly depletes secretory vesicles.^3,4 Fifteen, 30 and 60 min after challenge, the mice were scored for palpebral opening (0, 1, 2, 3, 4, 5) and locomotor activity (−1, 0, 1, 2, 3). At the 60-min interval, immediately after the scoring of overt behavior, the right eye pupil diameter and the esophageal temperature were measured again. Abnormal phenomena such as intensive sniffing, chewing, rearing, hyperemia, piloerection, salivation, tremors, convulsions and death were noted (the latter phenomena were also noted when occurring before Ro-4-1284 administration). Criteria for drug-induced effects: reversal of ptosis: palpebral opening score >1 at 15, 30 or 60 min (2.7, 0.5 and 0% false positive controls, respectively; n>350); induction of prostration: score −1 for locomotion at 15, 30 or 60 min (never observed in controls); reversal of hypomotility: score >0 for locomotion at 15, 30 and 60 min (2.2, 0.8 and 0% false positive controls, respectively); reversal of miosis: pupil diameter >5 units at 60 min (0.8% false positives); potentiation of hypothermia: temperature decrease (over the 1-h time interval)>9.0° C. (1.4% false positives); reversal of hypothermia: temperature decrease <3.0° C. (1.8% false positives).\n(§2) According to the standard procedure, R0-4-1284 is injected 15 min following subcutaneous or oral administration and observations start 15 min later. Doses are initially given to 3 animals. When at least 2 out of the 3 animals show activity for at least one of the observations, the compound is considered active.", "values": [{"molecule": "Cc1cc(Nc2ccnc3c2CCC3=O)ccc1NCCc1c[nH]c2c(C(C)O)cccc12", "note": "(stereo not drawn) [Compound 4]", "activity on reversal of hypomotility": "did not show activity", "activity on reversal of miosis": "did not show activity", "activity on reversal of ptosis": "did not show activity"}]}, {"system": "Male NMRI mice", "test": "Ro-4-1284 antagonism in mice", "type": "in vivo", "conditions": "80 mg/kg oral administration, 3 animals", "experimental": "as §1, §2", "values": [{"molecule": "COC1CCc2c(Nc3ccc(NCCc4c[nH]c5c(C(C)(C)O)cccc45)cc3)ccnc21", "note": "(single isomer, unassigned) [Compound 24]", "activity on reversal of hypomotility": "did not show activity", "activity on reversal of miosis": "did not show activity", "activity on reversal of ptosis": "did not show activity"}, {"molecule": "COC1CCc2c(Nc3ccc(NCCc4c[nH]c5c(C(C)(C)O)cccc45)cc3)ccnc21", "note": "(single isomer, unassigned) [Compound 25]", "activity on reversal of hypomotility": "did not show activity", "activity on reversal of miosis": "did not show activity", "activity on reversal of ptosis": "did not show activity"}, {"molecule": "Cc1cc(Nc2ccnc3c2CCC3(C)O)ccc1NCCc1c[nH]c2c(C(C)(C)O)cccc12", "note": "(single isomer, unassigned) [Compound 26]", "activity on reversal of hypomotility": "did not show activity", "activity on reversal of miosis": "did not show activity", "activity on reversal of ptosis": "did not show activity"}, {"molecule": "Cc1cc(Nc2ccnc3c2CCC3(C)O)ccc1NCCc1c[nH]c2c(C(C)(C)O)cccc12", "note": "(single isomer, unassigned) [Compound 27]", "activity on reversal of hypomotility": "did not show activity", "activity on reversal of miosis": "did not show activity", "activity on reversal of ptosis": "did not show activity"}, {"molecule": "COC1CCc2c(Nc3ccc(NCCc4c[nH]c5c(C(C)(C)O)cccc45)c(C)c3)ccnc21", "note": "(single isomer, unassigned) [Compound 28]", "activity on reversal of hypomotility": "did not show activity", "activity on reversal of miosis": "did not show activity", "activity on reversal of ptosis": "did not show activity"}, {"molecule": "COC1CCc2c(Nc3ccc(NCCc4c[nH]c5c(C(C)(C)O)cccc45)c(C)c3)ccnc21", "note": "(single isomer, unassigned) [Compound 29]", "activity on reversal of hypomotility": "did not show activity", "activity on reversal of miosis": "did not show activity", "activity on reversal of ptosis": "did not show activity"}, {"molecule": "CC(C)(O)c1cccc2c(CCNc3ccc(Nc4ccnc5c4CCC5(C)O)cc3)c[nH]c12", "note": "(single isomer, unassigned) [Compound 30]", "activity on reversal of hypomotility": "did not show activity", "activity on reversal of miosis": "did not show activity", "activity on reversal of ptosis": "did not show activity"}, {"molecule": "CC(C)(O)c1cccc2c(CCNc3ccc(Nc4ccnc5c4CCC5(C)O)cc3)c[nH]c12", "note": "(single isomer, unassigned) [Compound 31]", "activity on reversal of hypomotility": "did not show activity", "activity on reversal of miosis": "did not show activity", "activity on reversal of ptosis": "did not show activity"}, {"molecule": "Cc1cc(Nc2ccnc3c2CCC3(C)O)ccc1NCCc1c[nH]c2c(C(C)(C)O)cccc12", "note": "(stereo not drawn) [Compound 1]", "activity on reversal of hypomotility": "did not show activity", "activity on reversal of miosis": "did not show activity", "activity on reversal of ptosis": "did not show activity"}, {"molecule": "C=C(C)c1cccc2c(CCNc3ccc(Nc4ccnc5c4CCC5OC)cc3)c[nH]c12", "note": "(stereo not drawn) [Compound 7]", "activity on reversal of hypomotility": "did not show activity", "activity on reversal of miosis": "did not show activity", "activity on reversal of ptosis": "did not show activity"}, {"molecule": "Cc1cc(Nc2ccnc3c2CCC3O)ccc1NCCc1c[nH]c2c(C(C)(C)O)cccc12", "note": "(stereo not drawn) [Compound 18]", "activity on reversal of hypomotility": "did not show activity", "activity on reversal of miosis": "did not show activity", "activity on reversal of ptosis": "did not show activity"}, {"molecule": "Cc1cc(Nc2ccnc3c2CCC3O)ccc1NCCc1c[nH]c2c(C(C)(C)O)cccc12", "note": "(stereo not drawn) [Compound 20]", "activity on reversal of hypomotility": "did not show activity", "activity on reversal of miosis": "did not show activity", "activity on reversal of ptosis": "did not show activity"}]}]}
